Results on seven compounds are retold here after patent USRE42700E1, “Induction of apoptosis in cancer cells” (Sanford-Burnham Medical Research Institute, priority 2001, dated 2011).

SMILES strings stand for the structures. Peptide text beside a SMILES is read from it. * marks the point of attachment. Cbz = O=C(OCc1ccccc1)*; CH2F = FC*

Data set [1] has as its system p38 and JNK kinases (HL-60R human leukemia cell line). Particulars: cited from earlier work.
In data set [2] the test system is mouse mammary adenocarcinoma 16/C. Description: mouse mammary adenocarcinoma 16/C in syngeneic female C3H mice. On the procedure:
The ability of 3-Cl-AHPC to inhibit the in vivo growth of breast carcinoma cells was tested using syngeneic mouse mammary and human breast adenocarcinoma SCID xenograft models.

The subject of data set [3] is human leukemia cell line HL-60R. To be noted: cited from earlier work.
Another data set relates to AML cells. Briefly: growth of AML cells in SCID mice. In kind it is in vivo, mouse.
For data set [4], the system named is ALL cells obtained from patients. To be noted: background section; cited from earlier work.
Another data set concerns cell line ALL-REH. Particulars: ALL-REH cells; cited from earlier work.
The next data set concerns the target RARγ (Homo sapiens, UniProt P13631). To be noted: 1 μM; cited from earlier work.
In another data set the target is RARβ (Homo sapiens, UniProt P10826). Particulars: 1 μM; cited from earlier work.
Sequence of RARβ (P10826 whole entry, species assumed): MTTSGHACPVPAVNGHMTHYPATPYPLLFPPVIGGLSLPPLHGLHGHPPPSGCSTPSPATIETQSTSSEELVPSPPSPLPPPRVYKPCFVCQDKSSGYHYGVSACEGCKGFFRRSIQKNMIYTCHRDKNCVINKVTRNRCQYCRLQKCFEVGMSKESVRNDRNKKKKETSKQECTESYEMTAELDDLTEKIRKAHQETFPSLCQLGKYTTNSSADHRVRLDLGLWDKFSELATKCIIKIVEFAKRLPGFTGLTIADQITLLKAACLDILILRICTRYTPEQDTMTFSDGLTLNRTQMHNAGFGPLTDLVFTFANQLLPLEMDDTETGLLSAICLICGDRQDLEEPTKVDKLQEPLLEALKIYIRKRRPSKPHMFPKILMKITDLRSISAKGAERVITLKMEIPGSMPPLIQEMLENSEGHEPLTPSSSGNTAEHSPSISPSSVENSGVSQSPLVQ
The test system of the next data set is cell line K562. To be noted: cited from earlier work.
A further data set concerns RXRs. Particulars: cited from earlier work.
Another data set deals with RAR subtype α (Homo sapiens, UniProt P10276). Particulars: cited from earlier work.
Sequence of RAR subtype α (P10276 whole entry): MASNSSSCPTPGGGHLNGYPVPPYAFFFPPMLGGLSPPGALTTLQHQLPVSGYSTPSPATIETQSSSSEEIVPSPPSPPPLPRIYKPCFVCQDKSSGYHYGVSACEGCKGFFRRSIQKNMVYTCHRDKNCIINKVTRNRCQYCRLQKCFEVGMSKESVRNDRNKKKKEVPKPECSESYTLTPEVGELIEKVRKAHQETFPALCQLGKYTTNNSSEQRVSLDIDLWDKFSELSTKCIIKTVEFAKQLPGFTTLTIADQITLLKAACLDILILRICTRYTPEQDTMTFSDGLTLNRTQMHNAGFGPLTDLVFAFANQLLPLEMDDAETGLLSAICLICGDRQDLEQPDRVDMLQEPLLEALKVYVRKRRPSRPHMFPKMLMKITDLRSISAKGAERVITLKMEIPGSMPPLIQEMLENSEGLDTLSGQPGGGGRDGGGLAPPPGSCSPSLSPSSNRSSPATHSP
The subject of data set [5] is M07e or patient leukemia cells. Description: effect of kinase inhibitors on 3-Cl-AHPC-mediated apoptosis. In kind it is cell-based, human. Particulars: at concentrations inhibiting p38 or ERK activation.
Experimental: After 3-Cl-AHPC treatment, cells were harvested, washed with PBS and resuspended at 1×10^6 cells/ml. Cell suspensions (50 μl) were stained with 5 ml of acridine orange solution (100 mg/ml) in PBS in the dark. Cells displaying fragmented DNA were detected using a fluorescent microscope. Apoptotic cells were also detected using a kit. Cells that incorporated fluorescein labeled deoxyuridine triphosphate were detected using flow cytometry.
A further data set concerns Bcl-XL in leukemic cells. Briefly: Bcl-XL cleavage by Western blot. The class given is cell-based, human. Particulars: 50 μM inhibitor with 1 μM 3-Cl-AHPC, 24 hours. Here is the method: (§1) Western Blots: Western blots were performed according to the protocol of Sheikh, M. S., et al., (Oncogene, 9: 3407-3415 (1994)). Logarithmically growing cells were treated with 3-Cl-AHPC for various times and cells were harvested and lysed in Laemmli lysis buffer (0.5 M Tris-HCl, pH 6.8, 0.002M EDTA, 10% glycerol, 10% sodium dodecyl sulfate (SDS), and 5% β-mercaptoethanol). Protein lysates (50 μg/lane) were electrophoresed on 12% SDS-polyacrylamide gels and transferred to nitrocellulose membranes. Membranes were blocked with 5% nonfat dried milk in PBS/0.5% Tween 20 and then incubated with the appropriate antibodies. Horseradish peroxidase-conjugated rabbit anti-mouse IgG was used as the secondary antibody, and bands were developed using the Amersham ECL non-radioactive method.
A general note: A western blot detects proteins with antibodies after separation by electrophoresis.

In data set [6] the test system is ERK, p38 and JNK kinases in M07e and patient leukemic cells. Briefly: activation of MAPK pathways (phospho-p38, phospho-ERK, phospho-JNK Western blots). The class given is cell-based, human. To be noted: 50 μM inhibitor. On the procedure: as §1
Data set [7] has as its system leukemic blasts from patients (AML or CML in blast crisis). Briefly: apoptosis in primary cultures of patient leukemic blasts. In kind it is cell-based, human. On the procedure: (§2) Cell Growth: IL-3-transfected M07e cells have been described by Thacker, D. J., et al., Leukemia 8: 871-877 (1994). Cells were grown in RPMI supplemented with 5 percent heat-inactivated fetal bovine serum (FBS) and 25 μg/ml gentamycin in a […], 5% CO2, and 100% humidity environment. Leukemic cells were obtained from patients who met the criteria for the diagnosis of AML or CML in blast crisis (see Table 1). Studies were approved by the Wayne State University Institutional Review Board. Informed consent was obtained from all patients. Leukemic blasts from patients were isolated using Ficoll hypaque. Cells at the interface between plasma and red blood cells were diluted with sterile PBS, then layered over Ficoll hypaque (1.077 density), and the leukemic cells collected at the interface. The sample to be studied represented greater than 90% blasts. The patient leukemia samples were grown in RPMI medium supplemented with 10% FBS, gentamycin (25 μg/ml), IL-3 (20 ng/ml), SCF (25 ng/ml), GM-CSF (20 ng/ml) and G-CSF (20 ng/ml). Cell growth was assessed using a cell proliferation kit.
(§3) Apoptosis Quantification: Staining of apoptotic cells was performed as described by Gavreli, Y., et al., (J. Cell. Biol. 119: 493-501 (1992)) and Whitacre, C. M., et al., (Cancer Res. 55: 3697-3701 (1995)). After 3-Cl-AHPC treatment, cells were harvested, washed with PBS and resuspended at 1×10^6 cells/ml. Cell suspensions (50 μl) were stained with […] of acridine orange solution ([…]) in PBS in the dark. Cells displaying fragmented DNA were detected using a fluorescent microscope. Apoptotic cells were also detected using a kit. Cells that incorporated fluorescein labeled deoxyuridine triphosphate were detected using flow cytometry.

Data set [8] deals with Human Breast Cancer Cells. Briefly: apoptosis induction / cell death in breast cancer cells (all lines). In kind it is cell-based. Particulars: 10 μM.
Data set [9] has as its system human acute megakaryocytic leukemia cell line M07e. Briefly: M07e cell growth / proliferation. The class given is cell-based. To be noted: varying concentrations over time. On the procedure: as §2
The test system is the same in data set [10]. Description: M07e apoptosis quantification. The class given is cell-based. Here is the method:
as §3

For data set [11], the system named is acute promyelocytic leukemia (APL). Particulars: cited from earlier work.
Where [12] appears, read: total dose 133 mg/kg, days 1, 2, 5-9.
Setting [13] is: total dose 150 mg/kg, days 1, 2, 7-9.

Sequence of RARγ (P13631 whole entry, species assumed): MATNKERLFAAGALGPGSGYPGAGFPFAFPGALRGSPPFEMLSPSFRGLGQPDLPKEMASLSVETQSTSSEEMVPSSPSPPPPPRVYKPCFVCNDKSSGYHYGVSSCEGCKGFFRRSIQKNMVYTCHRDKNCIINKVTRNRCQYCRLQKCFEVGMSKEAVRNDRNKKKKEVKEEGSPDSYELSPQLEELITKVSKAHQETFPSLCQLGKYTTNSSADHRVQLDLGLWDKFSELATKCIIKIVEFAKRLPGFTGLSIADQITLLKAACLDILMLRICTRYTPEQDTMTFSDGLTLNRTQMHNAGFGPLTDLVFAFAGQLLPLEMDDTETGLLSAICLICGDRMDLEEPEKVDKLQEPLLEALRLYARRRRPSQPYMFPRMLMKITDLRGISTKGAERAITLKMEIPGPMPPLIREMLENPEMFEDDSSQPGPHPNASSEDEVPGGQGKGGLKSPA

Turning to `O=C(O)c1ccc2cc(-c3ccc(O)c(C45CC6CC(CC(C6)C4)C5)c3)ccc2c1` [AHPN, 6-[3-(1-adamantyl)-4-hydroxyphenyl]-2-naphthalenecarboxylic acid], in [1] (HL-60R human leukemia cell line), the “p38 and JNK activation” value was “p38 and JNK activation”. In addition, the “time to activation of the p38 and JNK kinases” value in data set [1] was at most 1 h. In data set [2] (total dose 99 mg/kg, days 1-9), the “% body wt. loss” value is on record as −4%, the Drug deaths is reported as 0/5 and the T/C % is given as 47%. Moreover, in [2] (setting [12]), the “% body wt. loss” value is on record as −11%, the Drug deaths is reported as 0/5, the Log cell kill was 0.49 and the T/C % amounted to 39%. Further, in data set [2] (setting [13]), the “% body wt. loss” value was −21%, the Drug deaths was 1/5, the Log cell kill was 0.63 and the T/C % turned out to be 30%. Also, the “apoptosis of HL-60R cells (lack functional RARs)” value in data set [3] is “results in apoptosis”. Besides, the “treated mice tumor-free more than 150 days (considered cured)” value in the data set on AML cells (five treated mice) is on record as “one out of the five”. For the same compound, in the data set on AML cells (treated SCID mice), the Tumor growth inhibition turned out to be 85.7%, the growth delay worked out at 21 days and the log cell kill was found to be 2.1. In addition, the “apoptosis of ALL cells obtained from patients” value in data set [4] is given as “induced apoptosis”. Moreover, the “caspase 3 activity” value in the data set on cell line ALL-REH is “stimulation of caspase 3 activity”. Moreover, the “binding and transactivation of RARγ” value on RARγ was “binds and transactivates”. The “binding and transactivation of RARβ” value at RARβ was “binds and transactivates”. Further, the “apoptosis of K562 cells (resistant to tRA)” value in the data set with cell line K562 was “results in apoptosis”. Moreover, the “binding to the RXRs” value in the data set with RXRs is recorded as “does not bind”. Moreover, the “binding and transactivation of RAR subtype α” value at RAR subtype α is “extremely poor binder and transactivator”.

As for `O=C(O)/C=C/c1ccc(-c2ccc(O)c(C34CC5CC(CC(C5)C3)C4)c2)cc1Cl` [Example 2, (E)-4-[3-(1-Adamantyl)-4-hydroxyphenyl]-2-chlorocinnamic acid], the melting point (as a rule, the temperature of the solid-liquid transition) is 276 to 278 °C.

The compound `Cc1cc(/C=C/C(=O)O)ccc1-c1ccc(O)c(C23CC4CC(CC(C4)C2)C3)c1` [Example 3, (E)-4-[3-(1-Adamantyl)-4-hydroxyphenyl]-3-methylcinnamic acid] gave a melting point of 232 to 234 °C.

The compound `Cc1cc(/C=C/C(=O)O)cc(C)c1-c1ccc(O)c(C23CC4CC(CC(C4)C2)C3)c1` [Example 4, (E)-4-[3-(1-Adamantyl)-4-hydroxyphenyl]-3,5-dimethylcinnamic acid] returned a melting point of 127 to 129 °C.

For the compound `COc1cccc(-c2cc(=O)c3ccccc3o2)c1N` [PD98059], the “effect on 3-Cl-AHPC-mediated apoptosis” value in data set [5] is reported as “did not inhibit or enhance 3-Cl-AHPC-mediated apoptosis”.

In the case of `COC(=O)C[C@H](NC(=O)[C@H](C)NC(=O)[C@@H](NC(=O)OCc1ccccc1)C(C)C)C(=O)CF` [ZVAD-fmk] (Cbz-Val-Ala-Asp(OMe)-CH2F), the “effect on 3-Cl-AHPC-mediated Bcl-XL cleavage” value with Bcl-XL in leukemic cells is listed as “inhibited Bcl-XL cleavage”. In data set [6], the “effect on 3-Cl-AHPC activation of JNK” value is “not inhibited”; the “effect on 3-Cl-AHPC activation of p38 and ERK” value is listed as “prevent their activation by 3-Cl-AHPC”.

As for `CC1=C(/C=C/C(C)=C/C=C/C(C)=C/C(=O)O)C(C)(C)CCC1` [tRA, trans-retinoic acid, reference compound], the induction of apoptosis result in data set [7] (1 μM, 11 primary cultures) is “did not induce apoptosis”. Besides, the “proliferation and apoptosis of primary human AML cultures (FIG. 13)” value in data set [7] (non-APL AML samples) was “had no effect”. Also, the “killing of breast carcinoma cells” value in [8] was “did not kill the cells”. Besides, the results for the inhibition of proliferation entry in data set [9] and in [10] were “did not significantly inhibit M07e proliferation” and “did not significantly inhibit M07e proliferation (FIG. 2C) or induce apoptosis”, respectively. Besides, the “patients achieving a complete remission” value in [11] is 90%.
